We go through twelve compounds from patent publication US5834433A, “Compounds and pharmaceutical uses of peptides of bombesin and GRP” (Merrell Pharmaceuticals Inc., priority 1996, dated 1998).

By pKd is commonly meant the negative decadic logarithm of the Kd, by convention in mol/L.

pKd: −log10 of the molar value. Non-standard residues stand in square brackets, D forms with d. Residues, ends and D or L forms follow the SMILES beside them. *: point of attachment. Palmitoyl = CCCCCCCCCCCCCCCC(=O)*; Lauroyl = CCCCCCCCCCCC(=O)*; Octanoyl = CCCCCCCC(=O)*

T1 sequence (P21729 whole entry): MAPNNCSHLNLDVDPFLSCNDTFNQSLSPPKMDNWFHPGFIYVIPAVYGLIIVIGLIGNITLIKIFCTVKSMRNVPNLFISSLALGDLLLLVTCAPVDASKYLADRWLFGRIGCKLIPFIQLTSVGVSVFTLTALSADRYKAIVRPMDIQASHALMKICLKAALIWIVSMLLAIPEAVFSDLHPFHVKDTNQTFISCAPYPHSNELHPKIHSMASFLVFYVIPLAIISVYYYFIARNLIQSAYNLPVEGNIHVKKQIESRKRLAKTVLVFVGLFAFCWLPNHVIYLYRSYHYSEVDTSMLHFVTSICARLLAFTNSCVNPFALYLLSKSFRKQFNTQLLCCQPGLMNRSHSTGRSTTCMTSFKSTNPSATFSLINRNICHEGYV

This assay has as its target T1, bombesin receptor (Mus musculus, UniProt P21729).
T1 construct: The pancreata from one or more mice were pooled, minced, and homogenized; from tissue; host or cells: mouse pancreas (membrane pellet in A1; chopped tissue in A2)
Put plainly: Competition at the bombesin receptor for iodinated GRP (125I-GRP), mouse pancreas membranes. Particulars: 125I-GRP competition, read-out: Binding KD. More on the design: species or system mice. As to the method:
The pancreata from one or more mice were pooled, minced, and homogenized in 50 mM HEPES (pH 7.4) containing 120 mM NaCl and 5 mM KC1 at 4° C. and centrifuged at 37,500 ×g for 15 minutes. The pellet was resuspended in 50 mM HEPES (pH 7.4) containing 10 mM EDTA and 300 mM KC1 and incubated for 30 minutes at 4° C. The suspension was centrifuged as above and the pellet was washed two times in 50 mM HEPES (pH 7.4) containing protease inhibitors (10 uM phenylmethylsulfonyl fluoride, 1 uM thiorphan, 40 ug/ml bacitracin, 10 mM iodoacetimide and 4 ug/ml leupeptin), and again centrifuged. The tissue was then resuspended in incubation buffer (1 ml per 4 mg pancreas) and incubated for 15 minutes at room temperature, then 250 ul was added to each assay tube to commence the assay. The assay tubes contained incubation buffer consisting of 50 mM HEPES (pH 7.4), 0.5% BSA, protease inhibitors, 2 mM MnCl2, 1 uM somatostatin, and concentrations of ^125 I-GRP and peptides as needed in a final volume of 500 ul. The assay was allowed to proceed to equilibrium for 90 minutes at room temperature. After this time, the contents of each tube was rapidly filtered over Whatman GF/B filters presoaked in 0.1% polyethyleneimine and the filters were rapidly washed three times with ice-cold 50 mM HEPES (pH 7.4). Filter-bound radioactivity was quantitated in a gamma counter. Competition of iodinated GRP binding by test compounds or standards was expressed as a percentage of ^125 I-GRP binding in the absence of peptide. Affinity and maximal binding were calculated with Ligand (Biosoft, Cambridge, UK).
In the case of `CCCCCCCCCCCCCCCC(=O)N[C@@H](CCC(N)=O)C(=O)N[C@@H](Cc1c[nH]c2ccccc12)C(=O)N[C@@H](C)C(=O)N[C@H](C(=O)N[C@H](C)C(=O)N[C@@H](Cc1c[nH]cn1)C(=O)N[C@@H](CC(C)C)C(N)=O)C(C)C` [Example 3, N-(Palmitoyl)-Gln-Trp-Ala-Val-ala-His-Leu-NH2] (Palmitoyl-QWAV[dA]HL-NH2), the pKd is 6.46.

`CC(=O)N[C@@H](CCC(N)=O)C(=O)N[C@@H](Cc1c[nH]c2ccccc12)C(=O)N[C@@H](C)C(=O)N[C@H](C(=O)N[C@H](C)C(=O)N[C@@H](Cc1c[nH]cn1)C(=O)N[C@@H](CC(C)C)C(N)=O)C(C)C` [Nα-AcetylQ W A V a H L #] (Ac-QWAV[dA]HL-NH2): the pKd is 7.16.

Turning to `CCCCCCCC(=O)N[C@@H](CCC(N)=O)C(=O)N[C@@H](Cc1c[nH]c2ccccc12)C(=O)N[C@@H](C)C(=O)N[C@H](C(=O)N[C@H](C)C(=O)N[C@@H](Cc1c[nH]cn1)C(N)=O)C(C)C` [Example 4, N-(n-Octanoyl)-Gln-Trp-Ala-Val-ala-His-NH2] (Octanoyl-QWAV[dA]H-NH2), the pKd was 7.24.

For `CCCCCCCCCCCC(=O)N[C@@H](CCC(N)=O)C(=O)N[C@@H](Cc1c[nH]c2ccccc12)C(=O)N[C@@H](C)C(=O)N[C@H](C(=O)N[C@H](C)C(=O)N[C@@H](Cc1c[nH]cn1)C(N)=O)C(C)C` [Nα-LaurylQ W A V a H #] (Lauroyl-QWAV[dA]H-NH2), the negative-log Kd (pKd) was less than 5.00.

As for `CC(=O)N[C@@H](Cc1c[nH]c2ccccc12)C(=O)N[C@@H](C)C(=O)N[C@H](C(=O)N[C@H](C)C(=O)N[C@@H](Cc1c[nH]cn1)C(N)=O)C(C)C` [Nα-AcetylW A V a H #] (Ac-WAV[dA]H-NH2), the negative logarithm of the Kd (pKd) is less than 5.00.

In the case of `CCCCCCCCCCCCCCCC(=O)N[C@@H](CCC(N)=O)C(=O)N[C@@H](Cc1c[nH]c2ccccc12)C(=O)N[C@@H](C)C(=O)N[C@H](C(=O)N[C@H](C)C(=O)N[C@@H](Cc1c[nH]cn1)C(N)=O)C(C)C` [Nα-PalmitylQ W A V a H #] (Palmitoyl-QWAV[dA]H-NH2), the negative logarithm of the Kd (pKd) was less than 5.00.

For `CC(=O)N[C@@H](CCC(N)=O)C(=O)N[C@@H](Cc1c[nH]c2ccccc12)C(=O)N[C@@H](C)C(=O)N[C@H](C(=O)N[C@H](C)C(=O)N[C@@H](Cc1c[nH]cn1)C(N)=O)C(C)C` [Nα-AcetylQ W A V a H #] (Ac-QWAV[dA]H-NH2), the pKd is 5.82.

For `CCCCCCCC(=O)N[C@@H](Cc1c[nH]c2ccccc12)C(=O)N[C@@H](C)C(=O)N[C@H](C(=O)N[C@H](C)C(=O)N[C@@H](Cc1c[nH]cn1)C(N)=O)C(C)C` [Nα-OctylW A V a H #] (Octanoyl-WAV[dA]H-NH2), the negative logarithm of the Kd (pKd) is less than 5.00.

As to `CCCCCCCCCCCC(=O)N[C@@H](Cc1c[nH]c2ccccc12)C(=O)N[C@@H](C)C(=O)N[C@H](C(=O)N[C@H](C)C(=O)N[C@@H](Cc1c[nH]cn1)C(N)=O)C(C)C` [Nα-LaurylW A V a H #] (Lauroyl-WAV[dA]H-NH2), the pKd is less than 5.00.

For `CCCCCCCC(=O)N[C@@H](CCC(N)=O)C(=O)N[C@@H](Cc1c[nH]c2ccccc12)C(=O)N[C@@H](C)C(=O)N[C@H](C(=O)N[C@H](C)C(=O)N[C@@H](Cc1c[nH]cn1)C(=O)N[C@@H](CC(C)C)C(N)=O)C(C)C` [Example 1, N-(n-Octanoyl)-Gln-Trp-Ala-Val-ala-His-Leu-NH2] (Octanoyl-QWAV[dA]HL-NH2), the negative-log Kd (pKd) is 8.30.

Take `CCCCCCCCCCCCCCCC(=O)N[C@@H](Cc1c[nH]c2ccccc12)C(=O)N[C@@H](C)C(=O)N[C@H](C(=O)N[C@H](C)C(=O)N[C@@H](Cc1c[nH]cn1)C(N)=O)C(C)C` [Nα-PalmitylW A V a H #] (Palmitoyl-WAV[dA]H-NH2): the pKd is less than 5.00.

For `CCCCCCCCCCCC(=O)N[C@@H](CCC(N)=O)C(=O)N[C@@H](Cc1c[nH]c2ccccc12)C(=O)N[C@@H](C)C(=O)N[C@H](C(=O)N[C@H](C)C(=O)N[C@@H](Cc1c[nH]cn1)C(=O)N[C@@H](CC(C)C)C(N)=O)C(C)C` [Example 2, N-(Lauroyl)-Gln-Trp-Ala-Val-ala-His-Leu-NH2] (Lauroyl-QWAV[dA]HL-NH2), the negative logarithm of the Kd (pKd) was 6.49.
